We go through six compounds from patent publication US8541395B2 (priority 2009, dated 2013).

In one data set the target is Kv1.5 (Homo sapiens, UniProt P22460). The experiment in a line: Patch clamp assay, ion channel inhibition. It counts as cell-based. Conditions: 2000 μM; n=2. In general terms: Patch clamp records ionic current or voltage across a cell membrane.
For a further data set, the target named is T1, Kir2.1 (Homo sapiens, UniProt P63252).
T1 sequence (P63252 1-427): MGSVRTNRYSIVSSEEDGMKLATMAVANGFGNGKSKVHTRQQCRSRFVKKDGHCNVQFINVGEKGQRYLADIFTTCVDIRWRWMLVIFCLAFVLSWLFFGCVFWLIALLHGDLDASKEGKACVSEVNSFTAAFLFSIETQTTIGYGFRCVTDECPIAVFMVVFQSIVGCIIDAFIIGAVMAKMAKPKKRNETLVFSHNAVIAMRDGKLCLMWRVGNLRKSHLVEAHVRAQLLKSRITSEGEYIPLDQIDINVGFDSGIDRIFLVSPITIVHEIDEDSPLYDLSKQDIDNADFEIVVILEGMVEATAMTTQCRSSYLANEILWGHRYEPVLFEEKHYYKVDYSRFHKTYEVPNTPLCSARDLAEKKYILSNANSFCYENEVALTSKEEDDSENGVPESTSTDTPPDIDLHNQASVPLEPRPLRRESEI
The experiment in a line: Patch clamp assay, ion channel inhibition. The class given is cell-based. Conditions: 100 μM; n=2.

A further data set has as its target T2, Kir3.1/3.4 (Homo sapiens, UniProt P48544+P48549).
T2 sequence (P48549 1-501): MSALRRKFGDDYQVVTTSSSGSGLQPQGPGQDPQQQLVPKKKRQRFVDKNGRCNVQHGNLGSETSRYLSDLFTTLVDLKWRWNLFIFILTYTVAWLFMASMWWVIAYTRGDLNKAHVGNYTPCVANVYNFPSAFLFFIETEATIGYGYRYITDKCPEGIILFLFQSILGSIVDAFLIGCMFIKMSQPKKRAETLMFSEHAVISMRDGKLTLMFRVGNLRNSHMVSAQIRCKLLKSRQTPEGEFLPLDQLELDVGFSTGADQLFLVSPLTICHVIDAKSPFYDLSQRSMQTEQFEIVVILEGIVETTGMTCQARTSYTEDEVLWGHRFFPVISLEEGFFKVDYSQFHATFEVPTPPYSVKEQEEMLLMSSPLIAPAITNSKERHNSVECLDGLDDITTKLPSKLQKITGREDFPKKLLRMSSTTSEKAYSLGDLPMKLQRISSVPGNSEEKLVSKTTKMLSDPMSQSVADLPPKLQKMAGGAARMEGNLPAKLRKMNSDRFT
T2 sequence (P48544 1-419): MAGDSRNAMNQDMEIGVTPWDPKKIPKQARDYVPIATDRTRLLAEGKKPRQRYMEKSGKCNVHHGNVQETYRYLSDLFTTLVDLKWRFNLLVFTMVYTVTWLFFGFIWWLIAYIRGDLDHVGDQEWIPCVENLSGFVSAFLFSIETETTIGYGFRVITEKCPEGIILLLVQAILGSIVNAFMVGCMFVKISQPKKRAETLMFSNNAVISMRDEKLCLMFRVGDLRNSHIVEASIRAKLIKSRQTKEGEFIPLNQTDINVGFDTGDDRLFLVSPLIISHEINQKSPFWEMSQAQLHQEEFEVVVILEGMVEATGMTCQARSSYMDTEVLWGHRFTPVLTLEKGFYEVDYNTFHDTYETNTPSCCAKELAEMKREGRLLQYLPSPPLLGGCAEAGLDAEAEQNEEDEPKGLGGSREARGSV
In words: Patch clamp assay, ion channel inhibition. Conditions: 300 μM; n=2. The class given is cell-based.

A further data set concerns the target Kir6.2/SUR2A (Homo sapiens, UniProt O60706+Q14654). In words: Patch clamp assay, ion channel inhibition. Conditions: n=2, read-out: Mean % inhibition (positive control). The class given is cell-based.
For a further data set, the system named is left atrium of rats. In words: Inotropism of isolated rat atrium (cardiac contraction force). From the text:
The left atrium of rats was used to assess the inotropic activity. The data were expressed as contraction force (g of tension), and were compared to the results obtained with bupivacaine.
The application of square pulses (5 V, 5 ms, 2 Hz) in the left atrium with frequency of 120 bpm was sufficient to produce a cardiac contraction force of 0.63±0.09 g of tension.

For a further data set, the system named is right atrium of rats. In words: Chronotropism of isolated rat atrium (frequency of spontaneous contractions). The text has this:
The right rat atrium was used to assess the chronotropic activity. The values of the spontaneous mechanical activity of the right atrium were expressed in contractions frequency or beats per minute (bpm). The heart rate was 298±50 contractions per minute in the rat right atrium.

Data set [1] has as its system rats with sciatic nerve ligature. The experiment in a line: Chronic constrictive injury (CCI) model, allodynia (von Frey). Conditions: for effect of naloxone on the analgesic action, allodynia: naloxone 5 mg/kg i.p., morphine 10 mg/kg, telocinobufagin 5 mg/kg i.p.; for antinociceptive effect on allodynia: p<0.05.
Data set [2] has as its system male Swiss mice. The experiment in a line: Formalin assay (intraplantar 4% formalin, phases 1 and 2) in mice. To be noted: for effect of naloxone on the analgesic action, phase 1 / effect of naloxone on the analgesic action, phase 2: naloxone 5 mg/kg i.p., morphine 10 mg/kg, telocinobufagin 5 mg/kg oral.
The subject of data set [3] is male Swiss mice. The experiment in a line: Hot plate assay. Conditions: for effect of naloxone on the analgesic action: naloxone 5 mg/kg i.p., morphine dose printed as 'mg/kg', telocinobufagin 5 mg/kg oral. (In hot-plate and tail-flick tests a longer latency is read as antinociception.)
Data set [4] concerns male Swiss mice. In words: Tail flick assay. To be noted: for effect of naloxone on the analgesic action: naloxone 5 mg/kg i.p., morphine 10 mg/kg, telocinobufagin 5 mg/kg oral.
Data set [5] has as its system male Swiss mice. In words: Contortion assay (0.6% acetic acid, abdominal contortions) in mice. To be noted: for effect of naloxone on the analgesic action: naloxone 5 mg/kg i.p., morphine 10 mg/kg i.p., telocinobufagin 10 mg/kg oral.
Data set [6] relates to rats with sciatic nerve ligature. In words: Chronic constrictive injury (CCI) model, hyperalgesia (Randall & Selitto paw pressure). Conditions: for effect of naloxone on the analgesic action, hyperalgesia: naloxone 5 mg/kg i.p., morphine 10 mg/kg, telocinobufagin 5 mg/kg i.p.

Sequence of Kir6.2/SUR2A (Q14654 whole entry): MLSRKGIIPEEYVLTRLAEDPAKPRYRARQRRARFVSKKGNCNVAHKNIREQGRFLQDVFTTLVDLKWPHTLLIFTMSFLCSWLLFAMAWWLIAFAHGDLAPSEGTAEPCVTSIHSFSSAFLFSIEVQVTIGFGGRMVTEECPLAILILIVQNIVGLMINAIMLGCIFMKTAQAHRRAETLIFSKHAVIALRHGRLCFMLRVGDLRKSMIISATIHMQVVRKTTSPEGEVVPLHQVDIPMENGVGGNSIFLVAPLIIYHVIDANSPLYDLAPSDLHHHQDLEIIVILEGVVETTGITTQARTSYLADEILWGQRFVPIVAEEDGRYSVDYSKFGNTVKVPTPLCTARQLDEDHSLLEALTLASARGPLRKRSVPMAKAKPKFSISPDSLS
Sequence of Kir6.2/SUR2A (O60706 whole entry): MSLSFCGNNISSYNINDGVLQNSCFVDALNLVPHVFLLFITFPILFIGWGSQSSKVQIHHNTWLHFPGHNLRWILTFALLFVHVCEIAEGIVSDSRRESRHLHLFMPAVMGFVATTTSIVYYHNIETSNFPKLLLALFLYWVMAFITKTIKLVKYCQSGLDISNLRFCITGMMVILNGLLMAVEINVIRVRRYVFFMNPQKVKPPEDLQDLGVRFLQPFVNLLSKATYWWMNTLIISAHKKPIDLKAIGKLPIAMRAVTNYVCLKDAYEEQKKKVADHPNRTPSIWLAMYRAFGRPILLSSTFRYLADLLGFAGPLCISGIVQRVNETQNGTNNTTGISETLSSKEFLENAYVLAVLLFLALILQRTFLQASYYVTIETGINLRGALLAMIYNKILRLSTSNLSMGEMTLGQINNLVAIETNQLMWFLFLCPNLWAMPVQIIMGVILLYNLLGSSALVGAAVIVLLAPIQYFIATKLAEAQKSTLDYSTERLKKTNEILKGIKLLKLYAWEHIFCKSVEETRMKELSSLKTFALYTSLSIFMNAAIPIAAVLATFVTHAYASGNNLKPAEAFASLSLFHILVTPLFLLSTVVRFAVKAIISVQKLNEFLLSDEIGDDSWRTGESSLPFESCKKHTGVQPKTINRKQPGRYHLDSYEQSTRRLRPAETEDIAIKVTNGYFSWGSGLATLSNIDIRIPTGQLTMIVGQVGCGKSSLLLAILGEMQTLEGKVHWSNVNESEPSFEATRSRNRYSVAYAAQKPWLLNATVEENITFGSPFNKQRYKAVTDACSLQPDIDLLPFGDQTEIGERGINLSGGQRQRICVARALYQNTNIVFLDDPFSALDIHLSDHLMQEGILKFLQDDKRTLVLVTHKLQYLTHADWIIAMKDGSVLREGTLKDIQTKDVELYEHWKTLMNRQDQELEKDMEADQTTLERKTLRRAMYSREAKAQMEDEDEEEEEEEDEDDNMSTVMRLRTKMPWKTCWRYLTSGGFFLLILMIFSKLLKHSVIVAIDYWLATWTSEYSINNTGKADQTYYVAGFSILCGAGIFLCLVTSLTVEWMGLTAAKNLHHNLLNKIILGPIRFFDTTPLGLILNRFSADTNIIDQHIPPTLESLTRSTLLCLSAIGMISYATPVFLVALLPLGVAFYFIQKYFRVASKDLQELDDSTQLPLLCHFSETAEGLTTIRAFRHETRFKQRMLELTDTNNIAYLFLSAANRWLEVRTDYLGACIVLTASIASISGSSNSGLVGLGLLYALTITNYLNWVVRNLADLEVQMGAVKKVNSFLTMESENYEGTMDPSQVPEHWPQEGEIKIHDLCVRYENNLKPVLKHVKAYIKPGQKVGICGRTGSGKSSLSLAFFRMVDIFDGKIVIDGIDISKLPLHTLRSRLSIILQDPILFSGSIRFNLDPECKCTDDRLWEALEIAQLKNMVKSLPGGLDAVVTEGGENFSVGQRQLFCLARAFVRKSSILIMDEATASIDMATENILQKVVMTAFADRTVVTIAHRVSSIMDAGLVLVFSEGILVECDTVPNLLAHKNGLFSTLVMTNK
Sequence of Kv1.5 (P22460 whole entry): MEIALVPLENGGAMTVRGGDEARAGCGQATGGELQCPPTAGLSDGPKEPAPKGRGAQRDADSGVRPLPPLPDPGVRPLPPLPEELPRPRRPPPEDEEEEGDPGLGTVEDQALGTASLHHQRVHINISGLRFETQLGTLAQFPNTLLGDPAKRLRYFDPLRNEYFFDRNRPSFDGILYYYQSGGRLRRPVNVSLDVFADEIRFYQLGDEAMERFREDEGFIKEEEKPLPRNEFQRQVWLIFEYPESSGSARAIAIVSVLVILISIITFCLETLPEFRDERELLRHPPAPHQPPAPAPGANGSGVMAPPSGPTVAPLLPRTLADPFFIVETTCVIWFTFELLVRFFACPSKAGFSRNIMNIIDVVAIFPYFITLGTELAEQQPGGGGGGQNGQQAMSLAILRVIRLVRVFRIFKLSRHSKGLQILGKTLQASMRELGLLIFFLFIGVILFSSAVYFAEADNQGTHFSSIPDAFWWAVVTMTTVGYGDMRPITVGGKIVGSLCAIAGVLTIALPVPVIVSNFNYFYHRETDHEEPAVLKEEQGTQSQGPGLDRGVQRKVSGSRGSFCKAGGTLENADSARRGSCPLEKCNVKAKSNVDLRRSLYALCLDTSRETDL
Description for Kir3.1/3.4: (§1) The studies were conducted according to the conventional procedures.
(§2) The exposure duration of each channel was 5 minutes. […] Any left current after exposure to this dose was digitally subtracted to eliminate the contribution of any endogenous current.
Description for Kir6.2/SUR2A: as §1, §2
Description for Kv1.5: as §1, §2

For `Nc1ccncc1` [4-AP], on Kv1.5, the “Mean % inhibition (positive control)” value amounted to 85.1%.

`[Ba]` [Barium]: the results for the “Mean % inhibition (positive control)” value on Kir2.1 and on Kir3.1/3.4 were 85.4% and 86.6%, respectively.

On to `COc1ccc(Cl)cc1C(=O)NCCc1ccc(S(=O)(=O)NC(=O)NC2CCCCC2)cc1` [Glibenclamide], for which the inhibition (commonly the drop in the measured response relative to a control, in per cent) at 1 µM at Kir6.2/SUR2A was 79.8%.

Take `CCCCN1CCCCC1C(=O)Nc1c(C)cccc1C` (centres unmarked) [bupivacaine, reference compound]: the cardiac contraction force in the data set with left atrium of rats (3×10^−5 M, basal 0.63±0.09, mean±SEM, n=6) is listed as 0.13±0.06 g of tension; in the data set on left atrium of rats (10^−4 M, p<0.05), “blocked completely the cardiac contraction force to zero”. The “frequency of spontaneous cardiac activity” value in the data set on right atrium of rats (3×10^−5 M, basal 298±50, mean±standard error, n=6) came out at 9.6±2.4 bpm. The “heart rate (frequency of spontaneous cardiac activity)” value in the data set with right atrium of rats (10^−4 M, p<0.05) was “blocked completely the heart rate to zero”.

On to `CN1CC[C@]23c4c5ccc(O)c4O[C@H]2[C@@H](O)C=C[C@H]3[C@H]1C5.O=S(=O)(O)O` [morphine, morphine sulfate, reference compound], for which the “reversion of the allodynia (compared to RP)” value in [1] (intraperitoneal morphine 10 mg/kg) is approximately 50%. In data set [1], the “effect of naloxone on the analgesic action, allodynia” value is “blocked”. In the data set with male Swiss mice [2] (phase 1), the “effect of naloxone on the analgesic action, phase 1” value was “blocked”. In the data set with male Swiss mice [2] (phase 2), the “effect of naloxone on the analgesic action, phase 2” value is given as “blocked”. The “effect of naloxone on the analgesic action” value with male Swiss mice [3], with male Swiss mice [4] and in the data set with male Swiss mice [5] was “blocked” each time. Besides, the “effect of naloxone on the analgesic action, hyperalgesia” value in data set [6] was “blocked”.

On to `C[C@]12CC[C@H](O)C[C@@]1(O)CC[C@@H]1[C@@H]2CC[C@]2(C)[C@@H](c3ccc(=O)oc3)CC[C@]12O` [telocinobufagin, (3β,5β)-3,5,14-trihydroxy-bufa-20,22-dienolide], for which the “antinociceptive effect on allodynia” value in data set [1] (5 mg/kg i.p.) and in [1] (20 mg/kg oral) was “blocking completely the allodynia” each time. Moreover, the “duration of the analgesic effects on allodynia” value in data set [1] (intraperitoneal 5 mg/kg) and in [1] (oral 20 mg/kg) was “around 6 hours” throughout. The “reversion of the allodynia (compared to RP)” value in data set [1] (intraperitoneal TBC 5 mg/kg) and in data set [1] (oral TBC 20 mg/kg) was “reverted completely the allodynia” each time. Also, in [1], the “effect of naloxone on the analgesic action, allodynia” value is listed as “did not block significantly”. Also, the “antinociceptive effect compared to the other analgesics, phase 1” value in the data set on male Swiss mice [2] (phase 1, 10 mg/kg oral vs diclofenac 50, dipyrone 50, codeine 20 mg/kg i.p., p<0.05) is recorded as “pretty much superior to that of the other analgesics”. Further, the “licks blocked compared to the control group, phase 1” value in the data set with male Swiss mice [2] (phase 1, 10 mg/kg oral, p<0.005) was approximately 80%. Also, the “effect of naloxone on the analgesic action, phase 1” value in the data set with male Swiss mice [2] (phase 1) is recorded as “did not block”. Also, the “antinociceptive effect, mol to mol, greater than that of morphine, phase 1” value in the data set on male Swiss mice [2] (phase 1, telocinobufagin 10 mg/kg oral vs morphine sulfate 10 mg/kg i.p.) is listed as approximately 40%. Besides, the “antinociceptive effect compared to the other analgesics, phase 2” value in the data set with male Swiss mice [2] (phase 2, 5 mg/kg oral vs diclofenac 50, dipyrone 50, codeine 20 mg/kg i.p., p<0.05) is recorded as “pretty much superior to that of the other analgesics”. Moreover, the “licks blocked compared to the control group, phase 2” value in the data set on male Swiss mice [2] (phase 2, 10 mg/kg oral, p<0.0001) is approximately 100%. Further, the “effect of naloxone on the analgesic action, phase 2” value with male Swiss mice [2] (phase 2) is given as “did not block”. Besides, the “antinociceptive effect, mol to mol, greater than that of morphine, phase 2” value with male Swiss mice [2] (phase 2, telocinobufagin 5 mg/kg oral vs morphine sulfate 10 mg/kg i.p.) is given as approximately 58%. Further, the “effect of naloxone on the analgesic action” value in the data set with male Swiss mice [3], in the data set on male Swiss mice [4] and in the data set with male Swiss mice [5] was “did not block” throughout. In the data set with male Swiss mice [3] (oral, dose printed as 'mg/kg' without figure, p<0.001), the “increase of the response (latency) compared to control group” value was “approximately 450%”. The “antinociceptive effect (tail flick latency)” value with male Swiss mice [4] (doses of 2.5 and 5 mg/kg oral, p<0.05) is recorded as “significant antinociceptive effects”. Also, the “alteration of the cardiac contraction force” value with left atrium of rats (10^−3 M during 12 minutes, p>0.05) is “did not produce significant alteration”. For the same compound, the “alteration of the cardiac contraction force compared to the control” value with left atrium of rats (10^−7 to 10^−4 M) was “no significant alteration”. The “antinociceptive effect compared to the other analgesics” value in the data set with male Swiss mice [5] (10 mg/kg oral vs diclofenac 50, dipyrone 50, codeine 20 mg/kg i.p., p<0.05) is given as “pretty much superior to the effects of the other analgesics”. Further, in the data set with male Swiss mice [5] (10 mg/kg oral, mice, p<0.001), the “contortions blocked compared to the control group” value is listed as approximately 90%. In addition, the “antinociceptive effect, mol to mol, greater than that of morphine” value in the data set with male Swiss mice [5] (telocinobufagin 10 mg/kg oral vs morphine sulfate 10 mg/kg i.p.) was approximately 40%. Further, in “Solubility” (50% DMSO (v/v in water)), the “solubility in 50% DMSO” value is listed as “soluble”. For the same compound, in the data set “Solubility” (ethanol (100%)), the solubility in ethanol result is given as “soluble”. In the data set “Solubility” (pure chloroform), the solubility in chloroform entry was “soluble”. Besides, the solubility in water result in the data set “Solubility” (water) was “insoluble”. Moreover, the “alteration of the spontaneous mechanical cardiac activity compared to the control” value in the data set on right atrium of rats (10^−7 M to 10^−4 M, n=6, p>0.05) was “no significant alteration”. The “duration of the analgesic effects on hyperalgesia” value in data set [6] (intraperitoneal 5 mg/kg) and in data set [6] (oral 20 mg/kg) was “around 6 hours” each time. Further, the “increase of the response compared to the control group (RPtest), hyperalgesia” value in data set [6] (intraperitoneal 5 mg/kg, p<0.001) is given as “approximately 9 times”; in data set [6] (oral 20 mg/kg, p<0.05), approximately 3.9 times. The “effect of naloxone on the analgesic action, hyperalgesia” value in data set [6] is reported as “did not block significantly”. Also, the “antinociceptive effect, mol to mol, greater than that of morphine, hyperalgesia” value in data set [6] (telocinobufagin 5 mg/kg i.p. (20 mg/kg oral) vs morphine sulfate 10 mg/kg i.p.) is “approximately 900%”. Also, the “antinociceptive effect compared to the other analgesics, hyperalgesia” value in [6] (vs diclofenac, codeine, dipyrone, amitriptyline, carbamazepine, prednisone, p<0.05) is listed as “pretty much superior to that of the other analgesics”.
